Test results reported in a melting point compilation (Tetko et al.; mined from patent text by program, amines drawn as free bases though some values may be those of a salt).

Row | SMILES | melting point
1 | O=C(Nc1cccc(F)c1)c1cccc(Oc2cccc(C(F)(F)F)c2)n1 | 74 to 75 °C
2 | COC(=O)c1cc(-c2ccccc2)c(=O)n2c1-c1sccc1S(=O)C2 (stereo unspecified) | 183 to 186 °C
3 | O=C(CCCC(=O)c1ccccc1)NC1CCN(Cc2ccc(Cl)c(Cl)c2)CC1 | 130 °C
4 | CC(=O)N1c2ccc(-c3ccc(CN(C)C)cc3)cc2C(Nc2ccccc2)CC1C (stereo unspecified) | 90 °C
5 | NC(CN1C(=O)C2(COc3cc4c(cc32)OCO4)c2c(Cl)cccc21)=NO (stereo unspecified) | 180 to 185 °C
6 | O=S(=O)(c1ccc(Cl)cc1)C(c1cc(F)ccc1F)c1cc(NCCc2ccncc2)ncc1Cl (stereo unspecified) | 148 to 150 °C
7 | CC1(CC(=O)O)CCCCC1=O (stereo unspecified) | 87 to 90 °C
8 | CCOC(=O)C1=C(C)NC(COCCN2C(=O)c3ccccc3C2=O)=C(C(=O)OC)C1c1cccc(Cl)c1Cl (stereo unspecified) | 165 °C
9 | CC(=O)NCCCCCCOc1ccccc1C(=O)Nc1ccc(C(=O)N2CCCCc3ccccc32)cc1 | 171 to 172 °C
10 | Cn1ccc2ccc(-c3ccc(C(C)(C)C)cc3)cc21 | 92 to 94 °C
11 | Nc1ccc(CCc2nc3ccccc3s2)cc1 | 79 to 81 °C
12 | CCOC(=O)OC1=C([C@H]2CC[C@H](c3ccc(Cl)cc3)CC2)C(=O)c2ccccc2C1=O | 145 to 149 °C
13 | CCC1(CC)CC(c2ccc(OC)c(OC)c2)=NN(C2CCN(C(=O)c3ccccc3OC)CC2)C1=O | 160 to 162 °C
14 | CCCCN(C)Cc1c(-c2ccccc2)sc(N)c1C(=O)c1ccc(Cl)cc1 | 84 to 88 °C
15 | CCCN(Cc1ccc(-c2ccccc2-c2nnn[nH]2)cc1)c1nc(C)cnc1C(=O)OCC | 172 to 174 °C
16 | CC1(C)CC(=O)c2cc(SCc3ccccc3)[nH]c2C1 | 148 to 150 °C
17 | CCN1CCO[C@]2(C)c3cccc4[nH]cc(c34)C[C@@H]12 (relative stereo) | 129 to 130 °C
18 | O=C(NC1CCN(CCCc2ccccc2)C1)C12CC3CC(CC(C3)C1)C2 (stereo unspecified) | 118 to 120 °C
19 | Brc1ccc(OCCCCCCN2CCN(c3nccs3)CC2)cc1 | 66 to 68 °C
20 | Cc1ccccc1[PH](=O)c1ccccc1C | 91.3 °C
21 | C#CCN1C(=O)COc2cc(F)c(-n3nc4n(c3=O)CCS4)cc21 | 211 to 213 °C
22 | OC1CC(CN2CCC(c3ccccc3)CC2)CCc2ccccc21 (stereo unspecified) | 48 to 50 °C

Row | SMILES | melting point
23 | COc1ccc(C[C@@H](NC(=O)OCc2ccccc2)[C@H](O)C(=O)O)cc1 | 160 to 162 °C
24 | CC(C)(C)CC(=O)N1CCC(c2ccc(COc3ccc(S(C)(=O)=O)cc3)nc2)CC1 | 140 to 142 °C
25 | C=C1CCC2C3CCC4CC(O)C(OCC)CC4(C)C3C(=O)CC12C (stereo unspecified) | 103 to 108 °C
26 | C=CCNC(=O)N=C(O)c1cc(C(=O)O)ccc1C(=O)O | 230 to 232 °C
27 | O=CN(O)C(CS(=O)(=O)c1ccc(-c2ccc(C(F)(F)F)cc2)cc1)c1ccc(O)cc1 (stereo unspecified) | 225 °C
28 | Oc1ccc2c(c1)c1c(n2CCCCCN2CCCCC2)-c2ccccc2SCC1 | 182 °C
29 | Cc1ccccc1-c1cc(Cl)cc2c1NC(CN)CO2 (stereo unspecified) | 86 °C
30 | O=c1c2cccnc2c(-c2cccc(Cl)c2)nn1-c1ccccc1 | 144 to 145 °C
31 | CN(C)C(=O)c1cc2c(c(C(=O)O)c1)OC(c1ccccc1)(c1ccccc1)O2 | 207 to 208 °C
32 | COCc1ccc(/C=C/c2c(OC)cc3c(c2OC)C(C)(C)CCC3(C)C)cc1 | 66 to 68 °C
33 | Cc1cc(C(=O)CCCCCCCCC(=O)c2cc(C)c(O)c(C(C)(C)C)c2)cc(C(C)(C)C)c1O | 165 to 168 °C
34 | COc1cc2c(cc1OC)CN(C(=O)Cc1ccc(-c3ccccc3)cc1)CC2 | 109 to 111 °C
35 | O=c1[nH]c2ccc(Cl)cc2n1-c1ccc(Cl)cc1 | 239 °C
36 | NC(=O)CCCCC1(c2ccccc2)CC(O)=CC(=O)O1 (stereo unspecified) | 173 to 174 °C
37 | C#CC1C2=C(C(=O)CCC2)c2ccc(OC(=O)C(C)(C)C)cc2N1C(=O)Oc1ccccc1 (stereo unspecified) | 140 to 142 °C
38 | COC(=O)c1ccc(C(=O)c2ccc3c(c2)C2(C)C4(C)CCC(C4)C2(C)O3)cc1 (stereo unspecified) | 150 °C
39 | NC(=O)C1CN1Cc1ccccc1 (stereo unspecified) | 114 to 116 °C
40 | c1ccc(C2CC(n3cncn3)c3ccccc3N2)cc1 (stereo unspecified) | 162 to 164 °C
41 | NS(=O)(=O)c1ccc(-n2ccc(C(F)F)n2)c(-c2ccc3c(c2)OCO3)c1 | 214 to 218 °C
42 | COc1ccc(S(=O)(=O)N(CC(=O)O)Cc2ccccc2N)cc1 | 145 to 147 °C
43 | Nc1ccc(Cl)cc1Cc1ccccc1Cl | 64 to 65 °C
44 | Cc1nc(C(=O)N2CCCC2)c2n1-c1ccc(Cl)cc1C(c1ccccc1F)=NC2 | 220 to 221 °C

Row | SMILES | melting point
45 | CCOC(=O)C(C)(C)Oc1ccc(CCNC(=O)C(C)(C)Oc2cccc(OC)c2)cc1 | 68 to 69 °C
46 | CC1C[C@H]2[C@@H](O1)[C@@H](O)C(=O)N2Cc1ccccc1 (relative stereo) | 98 to 101 °C
47 | CC(=O)OC1CCC2C3CCC4=CC(=O)C=CC4(C)C3CCC12C (stereo unspecified) | 165 °C
48 | COC(=O)c1cccc(S(N)(=O)=O)c1I | 155 to 157 °C
49 | O=C1C2=C(CCCC2)C(=O)N1c1ccc(Cl)c(CO)c1 | 77 to 79 °C
50 | CN(CCCO)CC1(SSC2(CN(C)CCCO)CCCCC2)CCCCC1 | 65 to 66 °C
51 | Nc1cc(C(F)(F)F)on1 | 44 to 45 °C
52 | CC(=O)OCc1ccc2oc(=O)c(C(=O)Oc3cc(F)ccc3Br)cc2c1 | 148 to 150 °C
53 | COc1ccc(C(O)c2sccc2C=O)cc1OC (stereo unspecified) | 90 to 91 °C
54 | C=CCC1c2ccccc2Cn2cc3c(c21)C(=O)c1ccccc1C3=O (stereo unspecified) | 159 to 160 °C
55 | CCN1C(=O)C(C)(C)C(=O)N(C)c2cc(CN(CCn3cc(C)c4occc4c3=O)Cc3cccnc3COC)ccc21 | 104 to 111 °C
56 | O=C1N=NC(=O)c2ccccc21 | 257 to 259 °C
57 | NCC(O)COc1ccc(OCC(O)CN)cc1 (stereo unspecified) | 128 to 132 °C
58 | CC(=O)NC1CCN(c2ccccn2)CC1 | 165 to 168 °C
59 | CN1N=C(c2cccc(F)c2)c2cc(Cl)ccc2CS1(=O)=O | 172 to 173 °C
60 | COc1ccccc1N1CCN(CCN(CCCN2CC=C(c3c[nH]c4cc(F)ccc34)CC2)C(C)=O)CC1 | 75 to 77 °C
61 | CN(C(=O)c1ccc2nonc2c1)[C@H]1CC[C@H](N=[N+]=[N-])CC1 | 149 to 150 °C
62 | COc1ccc(P2(=O)c3ccccc3CN2c2ccccc2)c(OC)c1 (stereo unspecified) | 173 to 175 °C
63 | CCOP(=O)(/C=C/c1cn(-c2ccccc2)nc1OCc1ccc(OCc2nc(-c3cccnc3)oc2C)c(OC)c1)OCC | 128 to 129 °C
64 | Cc1cc(C(=O)c2ccccc2)c(OCCCCCCCCO)cc1N(C)C | 56.9 °C

Now from value to molecule:

Row | melting point | SMILES
65 | 132 to 133 °C | COC(=O)Cc1n[nH]c(C)c1[N+](=O)[O-]
66 | 52 to 70 °C | CC(C)C[C@@H](C(=O)NCCCC(c1ccc(F)cc1)c1ccc(F)cc1)N1CCCCC1
67 | 180 to 182 °C | Cc1nc(C)n(-c2cc([C@@H]3C[C@H]3c3nc4ccccc4n3C)nc(C3CC3)n2)n1 (relative stereo)
68 | 115 °C | C=CC(=O)[C@H](Cc1cc(F)cc(F)c1)NC(=O)OC(C)(C)C
69 | 165 to 166 °C | CCc1c(OC)nc(OC)nc1C(=O)c1cc(C)cc(C=CC#N)c1
70 | 293 to 296 °C | Cn1c(-c2n[nH]c(=O)[nH]2)nc2ccccc21
71 | 135 to 137 °C | Cc1ccc2c(Br)c(F)cc([N+](=O)[O-])c2n1
72 | 157 to 159 °C | CCCN(C(=O)COc1c(Cl)cccc1Cl)C1CCc2c(ccc(O)c2O)C1 (stereo unspecified)
73 | 85 to 93 °C | CC1(C)SC2C(NC(=O)CNC(=O)c3ccccc3)C(=O)N2C1c1nnn[nH]1 (stereo unspecified)
74 | 60 to 61 °C | CCOC(=O)c1cnc2sc(C)c(C)n12
75 | 238 °C | COc1cc(OC)nc(-n2ncn(N)c2=O)n1
76 | 94 to 97 °C | CCOCc1nc2cnc(C)c(C)c2n1NC1CCOCC1
77 | 116 to 117 °C | CC(C(=O)O)c1cccc(Sc2ccccc2F)c1O (stereo unspecified)
78 | 176 to 178 °C | CCC(=O)Oc1cccc2c1C(=O)c1c(OC(=O)CC)cc(-c3nnn[nH]3)cc1C2=O
79 | 181 to 183 °C | Cn1nc2ccccc2c1S(N)(=O)=O
80 | 97 to 98 °C | COc1cc(-c2ccc(F)cc2)nc(-c2ccccn2)n1
81 | 156 to 158 °C | CC(C)C(=O)N1CCN(c2ccc(NC(=O)c3ccccn3)cc2Cl)CC1
82 | 145 to 147 °C | COc1ccc(Cl)cc1C(=O)NCCC1CCN(S(=O)(=O)NC(=S)NC(C)C)CC1
83 | 208 °C | C#CCOc1ccc(S(=O)(=O)C2(C(=O)O)CCN(Cc3ccc(OC)cc3)CC2)cc1

Row | melting point | SMILES
84 | 115 to 117 °C | O=C(O)C1(c2cn3nc(NCCCN4CCC(OC(c5ccccc5)c5ccccc5)CC4)ccc3n2)CC1
85 | 170 °C | Cc1nc2ccccn2c(=O)c1CCN1CCC(c2noc3cc(F)ccc23)CC1
86 | 199 to 200 °C | Cc1nnc2ncc(-c3ccccc3)cn12
87 | 118 °C | CCOC(=O)C1CN(CC)c2nc(OC)ncc2C1=O (stereo unspecified)
88 | 234 to 236 °C | O=C(O)c1cc(NCCc2ccc([N+](=O)[O-])cc2)ccc1O
89 | 126 to 128 °C | Clc1ccc(C(=Cn2cncn2)c2ccc(Cl)cc2)cc1
90 | 110 to 125 °C | O=C(O)Cc1cccc2c(-c3ccc(Cl)cc3)noc12
91 | 244 °C | CCOc1nsc(NC(=O)NC)c1C#N
92 | 158 to 160 °C | CC[Si](C#Cc1ccc2nc(-n3ccnc3)nc(NCCOC)c2c1)(CC)CC
93 | 128 to 129 °C | CCOC(=O)c1ncc2[nH]c3ccc(Oc4ncccn4)cc3c2c1COC
94 | 133 to 134 °C | O=C(O)c1cccnc1NCCSCc1nccs1
95 | 328 to 330 °C | CC(C)Cn1cc2c(O)nc(O)nc2n1
96 | 176 to 178 °C | Cc1cc(-n2cnn(Cc3ccc(C(F)(F)F)cc3)c2=O)sc1C(=O)NCc1cccnc1
97 | 190 to 192 °C | Cc1c(C(N)=O)c2ccccc2n2c(N(C)C)nc(-c3noc(C4CC4)n3)c12
98 | 146 to 147 °C | Cc1cc(C)cc(S(=O)c2cccc(F)c2C#N)c1 (stereo unspecified)
99 | 185 °C | O=C(O)c1cc(F)ccc1S
100 | 95 to 98 °C | CCOC(=O)CSc1nc(Cl)cc(NCc2ccc(C)cc2C)n1
101 | 176 to 178 °C | O=C(O)Cc1ccc(-n2cc(Cl)cn2)cc1
